Measured values as given in patent publication US8742158B2, “Protease inhibitors” (TaiMed Biologics, Inc., priority 2006, dated 2014).
Several values for one entry are separate records, joined by “and”; a condition that tells them apart may be missing. Equal values may be shown once. Read-outs that look alike come from different tables or passages of the source.

Experiments:
[1] = system: HIV-1 viral strain NL4-3; assay: Anti-viral assay in vitro (MTT, infected MT-4 cells, six days); assay type: cell-based; details: Human immunodeficiency virus 1, NL43, MT4, 144 h, read-out: ANTI-HIV-EC50 VIRAL STRAIN NL4-3
Experimental: Anti-Viral and Cytotoxicity Assays In Vitro
• To evaluate the EC50 of our compounds, various drug concentrations are incubated with the infected cell for six days and then the metabolic activity of the cells is monitored by the MTT assay. (See A. J. Japour et al., Antimicrobial Agents and Chemotherapy, 37, 1095-1101, 1993 and R. Pauwels et al. Journal of Virological Methods, 20, 309-321, 1988) • We use the laboratory viral strain NL4.3 as wild type virus and the cell line used is MT-4 which is a T-cell line highly sensitive to HIV-1. We also use some WT clinical strains. To address the resistance issue we assay the inhibitors with NL4.3 mutants which are designed to be resistant to specific commercially available inhibitors. • The same MTT assay is used to evaluate the CCIC50 (cell culture of IC50) of our compounds except that the virus is omitted.

[2] = target: HIV-1 Protease (Human immunodeficiency virus type 1 group M subtype B (isolate HXB2) (HIV-1), UniProt P04585); assay: Enzymatic (FRET fluorometric) assay for determining the inhibition constant (Ki) of compounds targeting the HIV protease; assay type: biochemical; details: for IC50: read-out: IC50 ENZYME HIV-1 Protease
Excerpt: Enzymatic Assay for Determining the Inhibition Constant (Ki) of Synthetic Compounds Targeting the HIV Protease
This is a fluorometric assay based on the cleavage by protease of a substrate carrying a donor group (EDANS) and an acceptor group (DABCYL) on each side of the cleavage site, interacting together through fluorescence resonance energy transfer (FRET) as described by Matayoshi et al. (Science 247:[…], 1990).
After calculation of Vo and Vi, the inhibition constant (Ki) of the compound is determined using the equation of Henderson:
where Vo=the enzyme's initial velocity
Vi=the enzyme velocity in the presence of the inhibitory compound,
[I]=inhibitor concentration, [S]=substrate concentration,
Km=Michaelis-Menten constant and Kiapp=apparent Ki
Graphs are traced and the Ki determined using GraphPad Prism software v. 3.0.

[3] = calculated Ki, read-out: KI-CALC ENZYME HIV-1 Protease
[4] = KIGRAPHIC ENZYME HIV-1 Protease, Ki determined graphically, read-out: […] ENZYME HIV-1 Protease

COC(=O)N[C@@H](Cc1ccccc1F)C(=O)NCCCC[C@H](CO)N(CC(C)C)S(=O)(=O)c1ccc2c(c1)CCO2 [EX 13]
EC50 [1]: 2140 nM | Ki [2, 3]: 9.2 nM

COC(=O)N[C@@H](Cc1ccccc1F)C(=O)NCCCC[C@H](CO)N(CC(C)C)S(=O)(=O)c1ccc2c(c1)OCCN2C [EX 14]
EC50 [1]: 1830 nM | Ki [2, 3]: 75.7 nM

CC(C)CN([C@H](CO)CCCCNC(=O)[C@H](Cc1ccccc1Br)NC(=O)N1CCOCC1)S(=O)(=O)c1ccc2c(c1)CCO2 [EX 17]
EC50 [1]: 665 nM | Ki [2, 4]: 1 nM and 1.03 nM | Ki [2, 3]: < 3.8 nM | IC50 [2]: 0.599 nM

Cc1c(O)cccc1C(=O)N[C@@H](Cc1ccccc1Br)C(=O)NCCCC[C@@H](CO)N(CC(C)C)S(=O)(=O)c1ccc(N)cc1 [EX 18]
EC50 [1]: 136 nM | Ki [2, 4]: 0.26 nM | IC50 [2]: 0.6 nM

CC(C)CN([C@H](CO)CCCCNC(=O)[C@H](Cc1ccccc1Br)NC(=O)c1cccc(O)n1)S(=O)(=O)c1ccc(N)cc1 [EX 19]
EC50 [1]: 99 nM | Ki [2, 4]: 0.27 nM | IC50 [2]: 0.29 nM

Cc1ccccc1C[C@H](NC(=O)c1cccnc1)C(=O)NCCCC[C@@H](CO)N(CC(C)C)S(=O)(=O)c1ccc(N)cc1 [EX 20]
EC50 [1]: 148 nM | Ki [2, 3]: < 3.8 nM | IC50 [2]: 1.42 nM

Cc1ccc(C(=O)N[C@@H](Cc2ccccc2C)C(=O)NCCCC[C@@H](CO)N(CC(C)C)S(=O)(=O)c2ccc(N)cc2)cn1 [EX 21]
EC50 [1]: 198 nM | Ki [2, 3]: < 3.8 nM | IC50 [2]: 1.29 nM

Cc1ccccc1C[C@H](NC(=O)c1ccncc1)C(=O)NCCCC[C@@H](CO)N(CC(C)C)S(=O)(=O)c1ccc(N)cc1 [EX 22]
EC50 [1]: 158 nM | Ki [2, 3]: < 3.8 nM | IC50 [2]: 1.35 nM

Cc1ccccc1C[C@H](NC(=O)c1cccc(C)c1O)C(=O)NCCCC[C@@H](CO)N(CC(C)C)S(=O)(=O)c1ccc(N)cc1 [EX 23]
EC50 [1]: > 50000 nM | Ki [2, 3]: < 3.8 nM | IC50 [2]: 4.12 nM

COC(=O)N[C@@H](CC1CCCCC1)C(=O)NCCCC[C@@H](CO)N(CC(C)C)S(=O)(=O)c1ccc(N)cc1 [EX 24]
EC50 [1]: > 5000 nM | Ki [2, 3]: 5.3 nM | IC50 [2]: 5.21 nM

CC(C)CN([C@H](CO)CCCCNC(=O)[C@H](CC1CCCCC1)NC(=O)c1cccnc1)S(=O)(=O)c1ccc(N)cc1 [EX 25]
EC50 [1]: > 5000 nM | Ki [2, 3]: < 3.8 nM | IC50 [2]: 2.88 nM

Cc1ccc(C(=O)N[C@@H](CC2CCCCC2)C(=O)NCCCC[C@@H](CO)N(CC(C)C)S(=O)(=O)c2ccc(N)cc2)cn1 [EX 26]
EC50 [1]: > 5000 nM | Ki [2, 3]: < 3.8 nM | IC50 [2]: 3.31 nM

COC(=O)N[C@H](C(=O)NCCCC[C@H](CO)N(CC(C)C)S(=O)(=O)c1cccc2cccnc12)C(c1ccccc1)c1ccccc1 [EX 27]
EC50 [1]: 369 nM | Ki [2, 3]: < 3.8 nM | IC50 [2]: 2.55 nM

CC(C)CN([C@H](CO)CCCCNC(=O)[C@H](Cc1ccccc1Cl)NC(=O)c1ccncc1)S(=O)(=O)c1ccc(N)cc1 [EX 29]
EC50 [1]: 144 nM | Ki [2, 3]: < 3.8 nM | IC50 [2]: 3.81 nM

Cc1ncccc1C(=O)N[C@@H](Cc1ccccc1Cl)C(=O)NCCCC[C@@H](CO)N(CC(C)C)S(=O)(=O)c1ccc(N)cc1 [EX 30]
EC50 [1]: 422 nM | Ki [2, 3]: < 3.8 nM | IC50 [2]: 2.15 nM

CC(C)CN([C@H](CO)CCCCNC(=O)[C@H](CC1=C(Br)CCC=C1)NC(=O)N1CCOCC1)S(=O)(=O)c1ccc2c(c1)OCCO2 [EX 31]
EC50 [1]: 980 nM | Ki [2, 3]: < 3.8 nM | IC50 [2]: 3.66 nM

CC(C)CN([C@H](CO)CCCCNC(=O)[C@@H](NC(=O)N1CCOCC1)C(c1ccccc1)c1ccccc1)S(=O)(=O)c1ccc2c(c1)CCO2 [EX 34]
EC50 [1]: 1000 nM | Ki [2, 4]: 0.821 nM | Ki [2, 3]: < 3.8 nM | IC50 [2]: 0.963 nM

COC(=O)N[C@H](C(=O)NCCCC[C@H](CO)N(CC(C)C)S(=O)(=O)c1ccc2c(c1)N(C)CCO2)C(c1ccccc1)c1ccccc1 [EX 35]
EC50 [1]: > 50000 nM | Ki [2, 3]: < 3.8 nM | IC50 [2]: 3.01 nM

Cc1cccnc1C(=O)N[C@@H](Cc1ccccc1Br)C(=O)NCCCC[C@@H](CO)N(CC(C)C)S(=O)(=O)c1ccc(N)cc1 [EX 36]
EC50 [1]: 204 nM | Ki [2, 4]: 0.267 nM | Ki [2, 3]: < 3.8 nM | IC50 [2]: 0.503 nM

Cc1ccc(C(=O)N[C@@H](Cc2ccccc2Br)C(=O)NCCCC[C@@H](CO)N(CC(C)C)S(=O)(=O)c2ccc(N)cc2)cc1O [EX 37]
EC50 [1]: 60 nM | Ki [2, 4]: 0.224 nM | Ki [2, 3]: < 3.8 nM | IC50 [2]: 0.683 nM

CC(C)CN([C@H](CO)CCCCNC(=O)[C@H](Cc1ccccc1Br)NC(=O)OCc1ccncc1)S(=O)(=O)c1ccc(N)cc1 [EX 38]
EC50 [1]: 248 nM | Ki [2, 4]: 0.27 nM | IC50 [2]: 0.92 nM

CC(C)CN([C@H](CO)CCCCNC(=O)[C@H](Cc1ccc2ccccc2c1)NCc1ccccn1)S(=O)(=O)c1ccc(N)cc1 [EX 56]
EC50 [1]: > 50000 nM | IC50 [2]: 5.9 nM

CC(C)CN([C@H](CO)CCCCNC(=O)[C@@H](NS(=O)(=O)c1cccs1)C(c1ccccc1)c1ccccc1)S(=O)(=O)c1ccc(N)cc1 [EX 57]
EC50 [1]: 64 nM | Ki [2, 4]: 0.541 nM | Ki [2, 3]: < 3.8 nM | IC50 [2]: 0.601 nM

CC(C)CN([C@H](CO)CCCCNC(=O)[C@@H](NC(=O)NCc1ccncc1)C(c1ccccc1)c1ccccc1)S(=O)(=O)c1ccc(N)cc1 [EX 62]
EC50 [1]: 170 nM | Ki [2, 4]: 0.443 nM | Ki [2, 3]: < 3.8 nM | IC50 [2]: 0.51 nM

Cc1ccc(C(=O)N[C@@H](Cc2ccccc2C)C(=O)NCCCC[C@@H](CO)N(CC(C)C)S(=O)(=O)c2ccc(N)cc2)cc1O [EX 63]
EC50 [1]: 165 nM | Ki [2, 3]: < 3.8 nM | IC50 [2]: 0.938 nM

COC(=O)N[C@H](C(=O)NCCCC[C@H](C(N)=O)N(CC(C)C)S(=O)(=O)c1ccc(N)cc1)C(c1ccccc1)c1ccccc1 [EX. 7]
EC50 [1]: 30 nM | Ki [2, 4]: 0.049 nM and 0.042 nM | IC50 [2]: 0.652 nM and 0.507 nM

CC(=O)N[C@H](C(=O)NCCCCC(C(N)=O)N(CC(C)C)S(=O)(=O)c1ccc(N)cc1)C(c1ccccc1)c1ccccc1 (stereo partly shown) [EX. 8]
EC50 [1]: 238 nM

COC(=O)N[C@H](C(=O)NCCCC[C@@H](CO)N(Cc1cccnc1)S(=O)(=O)c1ccc(N)cc1)C(c1ccccc1)c1ccccc1 [EX. 33]
EC50 [1]: 196 nM | Ki [2, 3]: < 3.8 nM | IC50 [2]: 1.01 nM

Cc1ncccc1C(=O)N[C@@H](Cc1ccccc1Br)C(=O)NCCCC[C@@H](CO)N(CC(C)C)S(=O)(=O)c1ccc(N)cc1 [EX. 39]
EC50 [1]: 70 nM | Ki [2, 4]: 0.183 nM | Ki [2, 3]: < 3.8 nM | IC50 [2]: 0.58 nM

Cc1ccc(C(=O)N[C@@H](Cc2ccccc2Br)C(=O)NCCCC[C@@H](CO)N(CC(C)C)S(=O)(=O)c2ccc(N)cc2)cn1 [EX. 40]
EC50 [1]: 55 nM | Ki [2, 4]: 0.217 nM | Ki [2, 3]: < 3.8 nM | IC50 [2]: 0.567 nM

CC(C)CN([C@H](CO)CCCCNC(=O)[C@@H](Cc1ccccc1Br)NC(=O)c1ccc2c(c1)OCO2)S(=O)(=O)c1ccc(N)cc1 [EX. 41]
EC50 [1]: 43 nM | Ki [2, 4]: 0.05 nM | IC50 [2]: 0.336 nM

CC(C)CN([C@H](CO)CCCCNC(=O)C(Cc1ccccc1Br)NC(=O)c1ccncc1)S(=O)(=O)c1ccc(N)cc1 (stereo partly shown) [EX. 42]
EC50 [1]: 40 nM | Ki [2, 4]: 0.182 nM | Ki [2, 3]: < 3.8 nM | IC50 [2]: 0.618 nM

CC(C)CN([C@H](CO)CCCCNC(=O)[C@H](Cc1ccccc1Br)NC(=O)c1cnccn1)S(=O)(=O)c1ccc(N)cc1 [EX. 44]
EC50 [1]: 60 nM | Ki [2, 4]: 0.318 nM | IC50 [2]: 0.471 nM
